Among the data in patent US7998995B2 (Exelixis Patent Company LLC, priority 2006, dated 2011) are EC50 values, retold here.

Molecules are shown by their SMILES.

In the assay the test system is T1, LXR.
T1 construct: fused on or other part: GST fused to the LBD in the FRET assay
The experiment in a line: Measured EC50 or IC50 for LXR (LXRα and/or LXRβ; assay and subtype not given). The conditions noted are these: IC50 or EC50 class, subtype not specified. As to the method:
Measured EC50 or IC50 for LXR, and FXR for Compounds of the Invention
LXR and FXR activities for various compounds of the invention are presented in the following table; those compounds with EC50 or IC50 values <10 μM for at least one of LXRα, LXRβ or FXR are considered to be active. In the following Table, IC50 or EC50 data is represented as follows: A<1 μM, B=1-10 μm, and C>10 μM.
As to `CS(=O)(=O)c1cccc(C#Cc2cc(C(F)(F)F)nn2-c2ccccc2Cl)c1` [Example 108, 1-(2-chlorophenyl)-5-{[3-(methylsulfonyl)phenyl]ethynyl}-3-(trifluoromethyl)-1H-pyrazole], the concentration for a half-maximal effect (EC50) is less than 1000 nM.

In turn, `Cc1nc(-c2cn(-c3ccc(-c4cccc(S(C)(=O)=O)c4)cc3)c(-c3ccccc3C(F)(F)F)n2)no1` [Example 1032] gave an EC50 of less than 1000 nM.

In the case of `Cc1cscc1-c1cn(-c2ccc(-c3cccc(S(C)(=O)=O)c3)cc2)c(-c2ccccc2C(F)(F)F)n1` [Example 993, 1-(3′-(methylsulfonyl)biphenyl-4-yl)-4-(4-methylthiophen-3-yl)-2-(2-(trifluoromethyl)phenyl)-1H-imidazole], the EC50 lay within 1000 to 10000 nM.

Molecule `CS(=O)(=O)c1cccc(NC(=O)c2cc(C(F)(F)F)nn2-c2ccccc2Cl)c1` [Example 611, 1-(2-chlorophenyl)-N-[3-(methylsulfonyl)phenyl]-3-(trifluoromethyl)-1H-pyrazole-5-carboxamide] registered an EC50 of more than 10000 nM.

The molecule `CS(=O)(=O)c1cccc(-c2ccc(-n3cc(-n4cnc(C#N)c4)nc3-c3ccccc3C(F)(F)F)cc2)c1` [Example 1008, 1′-(3′-(methylsulfonyl)biphenyl-4-yl)-2′-(2-(trifluoromethyl)phenyl)-1′H-1,4′-biimidazole-4-carbonitrile] came in with an EC50 of less than 1000 nM.

The molecule `CC1CN=C(c2cn(-c3ccc(-c4cccc(S(C)(=O)=O)c4)cc3Cl)c(-c3c(Cl)cccc3Cl)n2)O1` (stereo not shown) [Example 937, 2-{1-[3-chloro-3′-(methylsulfonyl)biphenyl-4-yl]-2-(2,6-dichlorophenyl)-1H-imidazol-4-yl}-5-methyl-4,5-dihydro-1,3-oxazole] came in with an EC50 of less than 1000 nM.

Molecule `CC1(C)CC(=O)C=C(c2cn(-c3ccc(-c4cccc(S(C)(=O)=O)c4)cc3Cl)c(-c3ccccc3Cl)n2)O1` [Example 982, 6-[1-(3-Chloro-3′-methanesulfonyl-biphenyl-4-yl)-2-(2-chlorophenyl)-1-H-imidazol-4-yl]-2,2-dimethyl-2,3-dihydro-pyran-4-one] yielded an EC50 of less than 1000 nM.

With `CS(=O)(=O)c1cccc(-c2ccc(-n3cc(N4CCCC4)nc3-c3c(Cl)cccc3Cl)cc2)c1` [Example 1002, 2-(2,6-dichlorophenyl)-1-[3′-(methylsulfonyl)biphenyl-4-yl]-4-(pyrrolidin-1-yl)-1H-imidazole], the EC50 is less than 1000 nM.

As to `CS(=O)(=O)c1cccc(-c2ccc(-n3cc([C@H]4CCCN4)nc3-c3ccccc3C(F)(F)F)cc2)c1` [Example 1016, 1-(3′-(methylsulfonyl)biphenyl-4-yl)-4-((R)-pyrrolidin-2-yl)-2-(2-(trifluoromethyl)phenyl)-1H-imidazole], the concentration for a half-maximal effect (EC50) was less than 1000 nM.

For the molecule `CS(=O)(=O)c1cccc(-c2ccc(-n3cc(-c4cc(C(F)(F)F)on4)nc3-c3ccccc3Cl)c(Cl)c2)c1` [Example 990, 3-(1-(3-chloro-3′-(methylsulfonyl)biphenyl-4-yl)-2-(2-chlorophenyl)-1H-imidazol-4-yl)-5-(trifluoromethyl)isoxazole], the EC50 was in the range of 1000 to 10000 nM.

Consider `CS(=O)(=O)c1cccc(-c2ccc(OCc3cc(C(F)(F)F)nn3-c3c(Cl)cccc3Cl)cc2)c1` [Example 891, 1-(2,6-dichlorophenyl)-5-((3′-(methylsulfonyl)biphenyl-4-yloxy)methyl)-3-(trifluoromethyl)-1H-pyrazole], for which the EC50 was less than 1000 nM.

`CS(=O)(=O)c1cccc(-c2ccc(OCc3cc(C(F)(F)F)nn3-c3ccccc3Cl)c(C#N)c2)c1` [Example 926, 4-({[1-(2-chlorophenyl)-3-(trifluoromethyl)-1H-pyrazol-5-yl]methyl}oxy)-3′-(methylsulfonyl)biphenyl-3-carbonitrile]: the EC50 was in the range of 1000 to 10000 nM.

In the case of `CC(=O)N1CCC[C@@H]1c1cn(-c2ccc(-c3cccc(S(C)(=O)=O)c3)cc2)c(-c2ccccc2C(F)(F)F)n1` [Example 1019, 1-((2R)-2-(1-(3′-(methylsulfonyl)biphenyl-4-yl)-2-(2-(trifluoromethyl)phenyl)-1H-imidazol-4-yl)pyrrolidin-1-yl)ethanone], the EC50 was more than 10000 nM.

One may read the EC50 as the concentration at which the effect is half-maximal.
